According to US8524691B2, “Phosphonated rifamycins and uses thereof for the prevention and treatment of bone and joint infections” (The Medicines Company, priority 2008, dated 2013):
≈ marks a conversion by molar mass, not a printed value. Read-outs that look alike come from different tables or passages of the source.

Legend:
Format in all cases: cell-based
[1] = tested on: S. aureus ATCC 13709^A, Novobiocin and Rifampicin resistant variant; assay: Antibacterial susceptibility (MIC), NCCLS broth microdilution
Description: (§1) Susceptibility of S. aureus strains to the known antibiotics and synthesized compounds was determined by following the guidelines set by NCCLS (M26-A). Compounds were diluted two-fold serially in DMSO and transferred to cation-adjusted Mueller Hinton broth (CAMHB; Becton Dickinson). 50 μL of compounds diluted in CAMHB was mixed with 100 μL of bacteria diluted in CAMHB in 96-well microtiter plates. The final concentration of micro-organisms in the assay was 5×10^5c.f.u. per mL and the final concentration of DMSO in the assay was 1.25%. Assays were set up in duplicate and incubated at 37° C. for 18 h. The lowest concentration of compound that inhibited visible growth was reported as the minimum inhibitory concentration (MIC).

S. aureus ATCC 29213 = assay: as above
Description: as §1

S. aureus ATCC 13709 [2] = assay: microbe, parasite or virus in culture; conditions: for Antibacterial activity (in words, from Table 1): S. aureus MIC
Description: as §1

S. aureus ATCC 13709 [3] = assay: microbe, parasite or virus in culture
Description: as §1
Susceptibility testing experiments were also carried out in the presence of serum. These experiments were carried out similar to the susceptibility testing with the following modifications. 75 μL of compounds diluted in CAMHB was mixed with 75 μL of bacteria diluted in 100% serum from any given source (commercial pooled mouse serum (MS) and human serum (HS), Equitech-Bio Inc.) or diluted in 8% purified human serum albumin (HSA) (Calbiochem). The final concentration of animal serum in the assay was 50% and the final concentration of purified human serum albumin in the assay was 4%; the concentrations of all other components were identical to those described for susceptibility testing.

| Structure (SMILES) | Minimum inhibitory concentration, S. aureus ATCC 13709^A [1] [µg/mL] | Minimum inhibitory concentration, S. aureus ATCC 29213 (S. aureus ATCC 29213; CAMHB, 37° C., 18 h) [µg/mL] | Minimum inhibitory concentration, S. aureus ATCC 13709 (S. aureus ATCC 13709 [2]; CAMHB, 37° C., 18 h) [µg/mL] | Antibacterial activity (in words, from Table 1) (S. aureus ATCC 13709 [2]) | Minimum inhibitory concentration, ATCC 13709 + 50% Human Serum (S. aureus ATCC 13709 [3]; 50% Human Serum) [µg/mL] | Minimum inhibitory concentration, ATCC 13709 + 50% Mouse Serum (S. aureus ATCC 13709 [3]; 50% Mouse Serum) [µg/mL] | Minimum inhibitory concentration, ATCC 13709 + 50% Rat Serum (S. aureus ATCC 13709 [3]; 50% Rat Serum) [µg/mL] | Serum dependence of antibacterial activity (in words) (S. aureus ATCC 13709 [3]; MIC with versus without serum) | Minimum inhibitory concentration, S. aureus ATCC 29213 (S. aureus ATCC 29213) [µg/mL] | Minimum inhibitory concentration, S. aureus ATCC 13709 (S. aureus ATCC 13709 [2]) [µg/mL] | Minimum inhibitory concentration, ATCC 13709 + 50% Human Serum (S. aureus ATCC 13709 [3]) [µg/mL] | Minimum inhibitory concentration, ATCC 13709 + 50% Mouse Serum (S. aureus ATCC 13709 [3]) [µg/mL] | Minimum inhibitory concentration, ATCC 13709 + 50% Rat Serum (S. aureus ATCC 13709 [3]) [µg/mL] |
| --- | --- | --- | --- | --- | --- | --- | --- | --- | --- | --- | --- | --- | --- |
| CO[C@H]1/C=C/O[C@@]2(C)Oc3c(C)c(O)c4c(c3C2=O)C2=NC3(CCN(CC(C)C)CC3)NC2=C(NC(=O)/C(C)=C\C=C\[C@H](C)[C@H](OC(=O)CN(CCCCC(P(=O)(O)O)P(=O)(O)O)CCOC(C)=O)[C@@H](C)[C@@H](O)[C@@H](C)[C@H](OC(C)=O)[C@@H]1C)C4=O [Compound 48b] | >128 | 0.5 (≈ 0.41 µM) | 0.25 (≈ 0.205 µM) | very low MICs whether in the absence or in the presence of serum | 0.5 | 0.25 | 0.0625 | – | – | – | – | – | – |
| CCCC(=O)OCCN(CCC(P(=O)(O)O)P(=O)(O)O)CC(=O)O[C@@H]1[C@@H](C)[C@@H](O)[C@@H](C)[C@H](OC(C)=O)[C@H](C)[C@@H](OC)/C=C/O[C@@]2(C)Oc3c(C)c(O)c4c(c3C2=O)C2=NC3(CCN(CC(C)C)CC3)NC2=C(NC(=O)/C(C)=C\C=C\[C@@H]1C)C4=O [Compound 52] | >128 | 8 (≈ 6.56 µM) | 4 (≈ 3.28 µM) | – | 16 | 2 | 0.5 | significant increase in antibacterial activity in serum | – | – | – | – | – |
| CCN(CC)CC.CO[C@H]1/C=C/O[C@@]2(C)Oc3c(C)c(O)c4c(c3C2=O)C2=NC3(CCN(CC(C)C)CC3)NC2=C(NC(=O)/C(C)=C\C=C\[C@H](C)[C@H](OC(=O)CN(C)CC(=O)NC(P(=O)(O)O)P(=O)(O)O)[C@@H](C)[C@@H](O)[C@@H](C)[C@H](OC(C)=O)[C@@H]1C)C4=O [Compound 147] | >128 | 128 | 128 | near complete loss of activity | 16 | 2 | 32 | – | – | – | – | – | – |
| CCC(=O)Oc1ccc(P(=O)(O)CP(=O)(O)O)cc1C(C)(C)CC(=O)N[C@@H](Cc1ccccc1)C(=O)N(C)CC(=O)O[C@@H]1[C@@H](C)[C@@H](O)[C@@H](C)[C@H](OC(C)=O)[C@H](C)[C@@H](OC)/C=C/O[C@@]2(C)Oc3c(C)c(O)c4c(c3C2=O)C2=NC3(CCN(CC(C)C)CC3)NC2=C(NC(=O)/C(C)=C\C=C\[C@@H]1C)C4=O.CCN(CC)CC.CCN(CC)CC [Compound 128] | >128 | – | – | near complete loss of activity | – | – | – | – | >128 | >128 | >128 | >128 | >128 |
